According to patent publication US20260240976A1, “T[…] VACCINES BASED ON VALIDATED TARGET EPITOPES” (Deutsches Krebsforschungszentrum Stiftung des öffentlichen …, priority 2023, published 2026):
Wherever ELISpot: Immungenicity of the peptide shown by IFN-gamma ELISPOT analysis is given: key: +: ELISPOT: Immungenicity of the peptide shown by IFN-gamma ELISPOT analysis; +*: *highlights data from published resources; *highlights data from published resources.

The substances below were run on short-term antigen-specific T cell lines generated from PBMCs (assay: Interferon-γ ELISpot assay on short-term antigen-specific T cell lines). Conditions: HLA restriction A01.
Assay type: cell-based, human
In the case of “134 (IHEIILECVY; Human papillomavirus 16) [compound 134]”, the “ELISpot: Immungenicity of the peptide shown by IFN-gamma ELISPOT analysis” value (shortened to “ELISpot: Immungenicity”) is reported as “+”.
In the case of “10 (ETTDLYCY; Human papillomavirus 16) [compound 10]”, the “ELISpot: Immungenicity” value is reported as “+”.
With “133 (SEYRHYCY; Human papillomavirus 16) [compound 133]” the “ELISpot: Immungenicity” value was “+”.
“9 (SEYRHYCYSLY; Human papillomavirus 16) [compound 9]” was tested, and the “ELISpot: Immungenicity” value was “+”.

Same assay, conditions: HLA restriction A03
“70 (KCLKFYSKI; Human papillomavirus 16) [compound 70]” was tested, and the “ELISpot: Immungenicity” value was “+”.
“71 (KFYSKISEY; Human papillomavirus 16) [compound 71]” was tested, and the “ELISpot: Immungenicity” value was “+”.

Same assay, conditions: HLA restriction A24
“71 (KFYSKISEY; Human papillomavirus 16) [compound 71]” was tested, and the “ELISpot: Immungenicity” value was “+”.

Same assay, conditions: HLA restriction B07
For “106 (RCMSCCRSSR; Human papillomavirus 16) [compound 106]”, the “ELISpot: Immungenicity” value was “+”.
“104 (RPRKLPQLCT; Human papillomavirus 16) [compound 104]” was tested, and the “ELISpot: Immungenicity” value was “+”.
In the case of “142 (CPDEKQRHL; Human papillomavirus 16) [compound 142]”, the “ELISpot: Immungenicity” value is reported as “+”.

Same assay, conditions: HLA restriction B15
In the case of “128 (CQKPLCPEE; Human papillomavirus 16) [compound 128]”, the “ELISpot: Immungenicity” value is reported as “+”.
In the case of “119 (LRREVYDFAF; Human papillomavirus 16) [compound 119]”, the “ELISpot: Immungenicity” value is reported as “+”.
In the case of “125 (SKISEYRHY; Human papillomavirus 16) [compound 125]”, the “ELISpot: Immungenicity” value is reported as “+”.
In the case of “81 (RAHYNIVTF; Human papillomavirus 16) [compound 81]”, the “ELISpot: Immungenicity” value is reported as “+”.
In the case of “111 (QQLLRREVY; Human papillomavirus 16) [compound 111]”, the “ELISpot: Immungenicity” value is reported as “+”.
With “120 (IVYRDGNPYAV; Human papillomavirus 16) [compound 120]” the “ELISpot: Immungenicity” value was “+”.
“127 (QQYNKPLCDL; Human papillomavirus 16) [compound 127]” was tested, and the “ELISpot: Immungenicity” value was “+”.
With “148 (FYSKISEY; Human papillomavirus 16) [compound 148]” the “ELISpot: Immungenicity” value was “+”.
“9 (SEYRHYCYSLY; Human papillomavirus 16) [compound 9]” was tested, and the “ELISpot: Immungenicity” value was “+”.
“145 (KISEYRHY; Human papillomavirus 16) [compound 145]” was tested, and the “ELISpot: Immungenicity” value was “+”.

Same assay, conditions: comparison among the peptides in Table 1
For “98 (TPTLHEYML; Human papillomavirus 16) [compound 98]”, the “rates of immunoactivation in PBMC samples, CD8 T cell responses and/or numbers of HPV16 positive cell lines presenting the peptide as HLA-complexes” value (from here on “rates of immunoactivation”) was “highest rates of immunoactivation in PBMC samples, to induce the strongest CD8 T cell responses, and/or shown to be presented as HLA-complexes by the highest numbers of HPV16 positive cell lines”.
In the case of “2 (HGDTPTLHEY; Human papillomavirus 16) [compound 2]”, the “rates of immunoactivation” value is reported as “highest rates of immunoactivation in PBMC samples, to induce the strongest CD8 T cell responses, and/or shown to be presented as HLA-complexes by the highest numbers of HPV16 positive cell lines”.
With “18 (RTLEDLLMGT; Human papillomavirus 16) [compound 18]” the “rates of immunoactivation” value was “highest rates of immunoactivation in PBMC samples, to induce the strongest CD8 T cell responses, and/or shown to be presented as HLA-complexes by the highest numbers of HPV16 positive cell lines”.
“81 (RAHYNIVTF; Human papillomavirus 16) [compound 81]” was tested, and the “rates of immunoactivation” value was “highest rates of immunoactivation in PBMC samples, to induce the strongest CD8 T cell responses, and/or shown to be presented as HLA-complexes by the highest numbers of HPV16 positive cell lines”.
